pEC50: −log10 of the molar value.

For one experiment, the system named is HEK293. Nature of the experiment: Cytotoxicity against HEK293 cells after 72 hrs by celltiter-glo assay. The class given is cell-based. The following applies: Homo sapiens, HEK293, 72 h. For orientation: Cellular ATP, detected with luciferase, serves as a proxy for viable cell number.
A further experiment has as its system BJ. Nature of the experiment: Cytotoxicity against human BJ cells after 72 hrs by celltiter-glo assay. The class given is cell-based.
The test system of the next experiment is HepG2. Briefly: Cytotoxicity against human HepG2 cells after 72 hrs by celltiter-glo assay. The class given is cell-based. Particulars: HepG2, 72 h.
The next experiment relates to Raji. Briefly: Cytotoxicity against human Raji cells after 72 hrs by celltiter-glo assay. It is filed as cell-based.
For experiment [1], the system named is Plasmodium falciparum. Nature of the experiment: Antimalarial activity against chloroquine and pyrimethamine-resistant Plasmodium falciparum K1 infected in O-positive erythrocytes assessed as parasite growth inhibition after 72 hrs by DNA staining-based assay. Particulars: K1, 72 h. The class given is functional, organism-based.
The test system of experiment [2] is Plasmodium falciparum. Briefly: Antimalarial activity against chloroquine-sensitive Plasmodium falciparum 3D7 infected in O-positive erythrocytes assessed as parasite growth inhibition after 72 hrs by DNA staining-based assay. The class given is functional, organism-based. The following applies: 3D7, 72 h.

As usually defined, the pEC50 is −log10 of the EC50, conventionally taken in molar units. As for `C/C1=C/C2=C[C@H](C)C[C@@]23O[C@]2(CC(C)(C)C4CC1(ON4)O2)C(C)C3=O` (stereo not given in full), the pEC50 was 4.58 in the experiment on HEK293; 4.58 with BJ; 4.58 in the experiment on HepG2; 4.58 in the experiment with Raji; 4.82 with Plasmodium falciparum [1]; 4.82 with Plasmodium falciparum [2].
Regarding `C[C@@H]1CC[C@H]2CC3=C(CO)CC[C@@]31C2(C)C`, the pEC50 is 4.58 with HEK293; 4.58 in the experiment on BJ; 4.58 in the experiment on HepG2; 4.58 with Raji; 4.82 in the experiment with Plasmodium falciparum [1]; 4.82 in the experiment with Plasmodium falciparum [2].
With `CC1=C2CC(C)(C)/C=C/[C@H](OC(=S)Sc3ccccc3)/C(C)=C\C3=C[C@H](C)C[C@]3(O2)C1=O`, the pEC50 is 4.58 with HEK293; 4.58 with BJ; 4.58 in the experiment on HepG2; 4.58 in the experiment on Raji; 4.82 with Plasmodium falciparum [1]; 4.82 in the experiment on Plasmodium falciparum [2].
Regarding `CC(=O)O[C@H]1/C=C/C(C)(C)CC2=C(C)[C@@H](OC(C)=O)[C@]3(C[C@@H](C)C=C3/C=C\1C)O2`, the pEC50 is 4.58 in the experiment with HEK293; 4.58 with BJ; 4.58 in the experiment with HepG2; 4.58 in the experiment with Raji; 4.82 with Plasmodium falciparum [1]; 5.25 in the experiment on Plasmodium falciparum [2].
As to `CC1=C2CC(C)(C)[C@@H](C)CC(=O)/C(C)=C\C3=C[C@H](C)C[C@]3(O2)C1=O`, the negative logarithm of the EC50 (pEC50) in the experiment on HEK293 was 4.58; in the experiment on BJ, 4.58; in the experiment with HepG2 it was 4.58; with Raji, 4.58; with Plasmodium falciparum [1], 4.82; with Plasmodium falciparum [2], 4.82.
Take `CC1=C2CC(C)(C)/C=C/[C@H](O)/C(C)=C\C3=C[C@H](C)C[C@]3(O2)C1=O`: the negative-log EC50 (pEC50) in the experiment on HEK293 was 4.58; in the experiment with BJ, 4.97; with HepG2, 4.73; in the experiment on Raji, 4.58; in the experiment with Plasmodium falciparum [1], 4.82; with Plasmodium falciparum [2], 5.03.
For `C=C1/C=C/C(C)(C)CC2=C(C)C(=O)[C@]3(C[C@@H](C)C=C3/C=C\1C)O2`, the pEC50 was 4.58 in the experiment with HEK293; 4.58 in the experiment with BJ; 4.58 with HepG2; 4.58 with Raji; 4.82 with Plasmodium falciparum [1]; 4.82 in the experiment with Plasmodium falciparum [2].
As for `C/C1=C/C2=C[C@H](C)C[C@@]23O[C@]2(CC(C)(C)[C@@H](OC(C)C)[C@@H]2C1=O)[C@@H](C)C3=O`, the pEC50 in the experiment with HEK293 was 4.58; in the experiment with BJ, 4.58; with HepG2, 4.58; with Raji it was 4.58; in the experiment with Plasmodium falciparum [1], 4.82; in the experiment on Plasmodium falciparum [2], 4.82.
Take `C[C@@H]1C[C@@]23O[C@@]45CC(C)(C)[C@@H](Sc6ccccc6)[C@@H]4C(=O)C(C)(C=C2[C@H]1Sc1ccccc1)[C@]3(O)[C@@H]5C` (stereo not given in full): the pEC50 was 4.58 in the experiment with HEK293; 4.58 in the experiment on BJ; 4.58 with HepG2; 4.58 with Raji; 5.25 in the experiment with Plasmodium falciparum [1]; 5.19 in the experiment with Plasmodium falciparum [2].
For the compound `C/C1=C/C2=C[C@H](C)C[C@@]23O[C@]2(CC(C)(C)C[C@@H]2[C@@]1(O)C#N)[C@@H](C)C3=O`, the pEC50 with HEK293 was 5.06; in the experiment on BJ, 4.58; in the experiment with HepG2, 4.58; in the experiment with Raji, 4.58; with Plasmodium falciparum [1], 4.82; in the experiment with Plasmodium falciparum [2], 4.82.
As to `CC1=C2CC(C)(C)/C=C/C(=O)/C(C)=C\C3=C[C@H](C)C[C@]3(O2)[C@@]1(O)C#N`, the pEC50 in the experiment on HEK293 is 4.58; with BJ, 4.58; with HepG2 it was 4.58; in the experiment with Raji, 4.67; with Plasmodium falciparum [1], 4.82; in the experiment with Plasmodium falciparum [2], 4.82.
For the compound `C[C@@H]1CC[C@H]2CC3=C(C(=O)O)CC[C@@]31C2(C)C`, the negative logarithm of the EC50 (pEC50) in the experiment on HEK293 was 4.58; in the experiment on HepG2, 4.58; in the experiment on Raji, 4.58; in the experiment on Plasmodium falciparum [1] it was 4.82; in the experiment on Plasmodium falciparum [2] it was 4.82.
With `CC1=C2CC(C)(C)CCC(=O)C(C)CC3=C[C@H](C)C[C@]3(O2)C1=O` (mixture of isomers), the pEC50 is 4.58 in the experiment on HEK293; 4.58 in the experiment with BJ; 4.58 with HepG2; 4.58 in the experiment on Raji; 4.82 in the experiment with Plasmodium falciparum [1]; 4.82 in the experiment with Plasmodium falciparum [2].
`CC1=C2CC(C)(C)CCC(=O)C(C)CC3C[C@H](C)C[C@]3(O2)C1=O` (mixture of isomers): the pEC50 with HEK293 is 4.58; in the experiment on BJ, 4.58; in the experiment on HepG2, 4.58; with Raji, 4.58; in the experiment with Plasmodium falciparum [1], 4.82; in the experiment on Plasmodium falciparum [2], 4.82.
Consider `CO[C@H]1[C@@H]2C(=O)/C(C)=C\C3=C[C@H](C)C[C@@]34O[C@]2(CC1(C)C)[C@@H](C)C4=O`, for which the pEC50 was 4.58 in the experiment on HEK293; 4.58 in the experiment with BJ; 4.58 in the experiment on HepG2; 4.58 with Raji; 4.82 in the experiment with Plasmodium falciparum [1]; 4.82 in the experiment on Plasmodium falciparum [2].
Take `CC1=C2CC(C)(C)[C@@H]3C=C(OC3)/C(C)=C\C3=C[C@H](C)C[C@]3(O2)C1=O`: the pEC50 is 4.58 in the experiment with HEK293; 4.58 with BJ; 4.58 in the experiment on HepG2; 4.58 with Raji; 4.82 in the experiment with Plasmodium falciparum [1]; 4.82 with Plasmodium falciparum [2].
`C/C1=C/[C@]23O[C@H]2[C@H](C)C=C3C(=O)[C@@](C)(O)C(=O)CC(C)(C)/C=C/C1=O`: the negative logarithm of the EC50 (pEC50) is 4.58 in the experiment on HEK293; 4.58 in the experiment with BJ; 4.58 in the experiment on HepG2; 4.58 in the experiment on Raji; 4.82 with Plasmodium falciparum [1]; 4.82 with Plasmodium falciparum [2].
For `CC(=O)O[C@@H]1/C=C/C(C)(C)CC2=C(C)C(=O)[C@]3(C[C@@H](C)C=C3/C=C\1C)O2`, the pEC50 in the experiment with HEK293 is 4.58; with BJ it was 4.58; in the experiment with HepG2, 4.58; in the experiment on Raji, 4.58; with Plasmodium falciparum [1], 4.82; in the experiment on Plasmodium falciparum [2], 5.79.
Consider `CCOC(=O)CNC(=O)[C@H](CS[C@H]1[C@@H]2C(=O)/C(C)=C\C3=C[C@H](C)C[C@@]34O[C@]2(CC1(C)C)[C@@H](C)C4=O)NC(=O)CC[C@H](N)C(=O)O`, for which the pEC50 in the experiment on HEK293 is 4.58; in the experiment on BJ it was 4.90; in the experiment with HepG2, 4.58; in the experiment on Raji, 5.22; with Plasmodium falciparum [1], 4.82; in the experiment on Plasmodium falciparum [2] it was 4.82.
As to `CC1=C2CC(C)(C)/C=C/[C@H](OC(=S)n3ccnc3)/C(C)=C\C3=C[C@H](C)C[C@]3(O2)C1=O`, the pEC50 is 4.58 in the experiment on HEK293; 4.58 with BJ; 4.58 with HepG2; 4.58 in the experiment on Raji; 5.23 with Plasmodium falciparum [1]; 5.25 in the experiment on Plasmodium falciparum [2].
With `CC1=C2CC(C)(C)/C=C/C/C(C)=C\C3=C[C@H](C)C[C@]3(O2)C1=O`, the pEC50 with HEK293 was 4.58; in the experiment with BJ it was 4.58; in the experiment with HepG2, 4.58; in the experiment on Raji it was 4.58; with Plasmodium falciparum [1], 4.82; in the experiment with Plasmodium falciparum [2], 4.82.

These data come from ChEMBL document CHEMBL2401682, “Evaluation of Jatropha isabelli natural products and their synthetic analogs as potential antimalarial therapeutic agents” (Eur J Med Chem, 2013).
